Assay results published in PubChem BioAssay (NCI).
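48-hour exposure; five concentrations; linearly interpolated endpoints. The concentration for full growth arrest is given as TGI.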

How the values were obtained:
Assay in all cases: NCI tumour cell line growth inhibition, 48 h
SR leukemia = system: SR leukemia
SN12C renal = system: SN12C renal
HS 578T breast = system: HS 578T breast
A549 NSCLC = system: A549 NSCLC
U251 CNS = system: U251 CNS
NCI-H23 lung = system: NCI-H23 lung
T-47D breast = system: T-47D breast
BT-549 breast = system: BT-549 breast
HCC-2998 colon = system: HCC-2998 colon
DU-145 prostate = system: DU-145 prostate
KM12 colon = system: KM12 colon
SK-MEL-5 melanoma = system: SK-MEL-5 melanoma
NCI-H226 lung = system: NCI-H226 lung
MDA-N = system: MDA-N
NCI-H522 lung = system: NCI-H522 lung
EKVX NSCLC = system: EKVX NSCLC
SF-268 CNS = system: SF-268 CNS
PC-3 prostate = system: PC-3 prostate
COLO 205 colon = system: COLO 205 colon
SW-620 colon = system: SW-620 colon
SK-OV-3 ovarian = system: SK-OV-3 ovarian
786-0 renal = system: 786-0 renal
SNB-19 CNS = system: SNB-19 CNS
TK-10 renal = system: TK-10 renal
CCRF-CEM leukemia = system: CCRF-CEM leukemia
OVCAR-8 ovarian = system: OVCAR-8 ovarian
HL-60(TB) leukemia = system: HL-60(TB) leukemia
UACC-257 melanoma = system: UACC-257 melanoma
MDA-MB-435 = system: MDA-MB-435
NCI/ADR-RES ovarian = system: NCI/ADR-RES ovarian
UO-31 renal = system: UO-31 renal
HOP-92 NSCLC = system: HOP-92 NSCLC
OVCAR-3 ovarian = system: OVCAR-3 ovarian
CAKI-1 renal = system: CAKI-1 renal
M14 melanoma = system: M14 melanoma
IGROV1 ovarian = system: IGROV1 ovarian
HT29 colon = system: HT29 colon
MCF7 breast = system: MCF7 breast
RXF 393 renal = system: RXF 393 renal
SNB-75 CNS = system: SNB-75 CNS
ACHN renal = system: ACHN renal
MDA-MB-231 breast = system: MDA-MB-231 breast
SK-MEL-2 melanoma = system: SK-MEL-2 melanoma
SF-539 CNS = system: SF-539 CNS
A498 renal = system: A498 renal
SF-295 CNS = system: SF-295 CNS
SK-MEL-28 melanoma = system: SK-MEL-28 melanoma
RPMI-8226 leukemia = system: RPMI-8226 leukemia
HCT-15 colon = system: HCT-15 colon
OVCAR-4 ovarian = system: OVCAR-4 ovarian
HOP-62 NSCLC = system: HOP-62 NSCLC
UACC-62 melanoma = system: UACC-62 melanoma
OVCAR-5 ovarian = system: OVCAR-5 ovarian
MALME-3M melanoma = system: MALME-3M melanoma
NCI-H460 lung = system: NCI-H460 lung
HCT-116 colon = system: HCT-116 colon
MOLT-4 leukemia = system: MOLT-4 leukemia
LOX IMVI melanoma = system: LOX IMVI melanoma
K-562 leukemia = system: K-562 leukemia

`CN(C)CCCNC(=O)c1cn2c(ccc3sc4ccccc4c(=O)c32)n1` showed a TGI (SR leukemia) of 30 µM, a TGI (SN12C renal) of 9.57 µM and a TGI (HS 578T breast) of 36.1 µM. It also gave a TGI (A549 NSCLC) of 28.3 µM, a TGI (U251 CNS) of 3.22 µM and a TGI (NCI-H23 lung) of 28.4 µM. The TGI (T-47D breast) was 45.3 µM, the TGI (BT-549 breast) was 37.8 µM and the TGI (HCC-2998 colon) was 25.4 µM. It also gave a TGI (DU-145 prostate) of 25 µM, a TGI (KM12 colon) of 37.6 µM and a TGI (SK-MEL-5 melanoma) of 3.34 µM. It also gave a TGI (NCI-H226 lung) of 36.1 µM, a TGI (MDA-N) of 9.88 µM and a TGI (NCI-H522 lung) of 32.4 µM. The TGI (EKVX NSCLC) was 31.6 µM, the TGI (SF-268 CNS) was 9.96 µM and the TGI (PC-3 prostate) was 9.43 µM. For the same compound, the TGI (COLO 205 colon) was 7.95 µM, the TGI (SW-620 colon) was 3.15 µM and the TGI (SK-OV-3 ovarian) was 30.7 µM. It also gave a TGI (786-0 renal) of 8.08 µM, a TGI (SNB-19 CNS) of 31.8 µM and a TGI (TK-10 renal) of 30.9 µM. For the same compound, the TGI (CCRF-CEM leukemia) was > 20.1 µM, the TGI (OVCAR-8 ovarian) was 10.1 µM and the TGI (HL-60(TB) leukemia) was 22.2 µM. The TGI (UACC-257 melanoma) was 30.3 µM, the TGI (MDA-MB-435) was 30.4 µM and the TGI (NCI/ADR-RES ovarian) was 8.37 µM. The TGI (UO-31 renal) was 24.3 µM, the TGI (HOP-92 NSCLC) was 24.7 µM and the TGI (OVCAR-3 ovarian) was 24.1 µM. It also gave a TGI (CAKI-1 renal) of 14.8 µM, a TGI (M14 melanoma) of 28.1 µM and a TGI (IGROV1 ovarian) of 27.4 µM. The TGI (HT29 colon) was 2.74 µM, the TGI (MCF7 breast) was 8.48 µM and the TGI (RXF 393 renal) was 21.8 µM. The TGI (SNB-75 CNS) was 30.5 µM, the TGI (ACHN renal) was 25.8 µM and the TGI (MDA-MB-231 breast) was 2.93 µM. For the same compound, the TGI (SK-MEL-2 melanoma) was 38.4 µM, the TGI (SF-539 CNS) was 33.1 µM and the TGI (A498 renal) was 30.7 µM. For the same compound, the TGI (SF-295 CNS) was 17.4 µM, the TGI (SK-MEL-28 melanoma) was 19.6 µM and the TGI (RPMI-8226 leukemia) was 5.36 µM. The TGI (HCT-15 colon) was 10.7 µM, the TGI (OVCAR-4 ovarian) was 28.1 µM and the TGI (HOP-62 NSCLC) was 28 µM. The TGI (UACC-62 melanoma) was 35.9 µM, the TGI (OVCAR-5 ovarian) was 22.8 µM and the TGI (MALME-3M melanoma) was 24.4 µM. It also gave a TGI (NCI-H460 lung) of 2.73 µM and a TGI (HCT-116 colon) of 2.98 µM.
`O=C(Nc1ccc2ccccc2c1)c1cc2cc(CCl)ccc2oc1=O` was tested, and the TGI (SR leukemia) was > 100 µM, the TGI (SN12C renal) was > 100 µM and the TGI (HS 578T breast) was 8.73 µM. The TGI (A549 NSCLC) was > 100 µM, the TGI (U251 CNS) was > 100 µM and the TGI (NCI-H23 lung) was > 100 µM. For the same compound, the TGI (T-47D breast) was > 100 µM, the TGI (BT-549 breast) was > 100 µM and the TGI (HCC-2998 colon) was > 100 µM. The TGI (DU-145 prostate) was > 100 µM, the TGI (KM12 colon) was > 100 µM and the TGI (SK-MEL-5 melanoma) was > 100 µM. The TGI (NCI-H226 lung) was > 100 µM, the TGI (MDA-N) was > 100 µM and the TGI (NCI-H522 lung) was > 100 µM. The TGI (EKVX NSCLC) was > 100 µM, the TGI (SF-268 CNS) was 73.5 µM and the TGI (PC-3 prostate) was > 100 µM. The TGI (COLO 205 colon) was > 100 µM, the TGI (SW-620 colon) was > 100 µM and the TGI (SK-OV-3 ovarian) was > 100 µM. The TGI (786-0 renal) was > 100 µM, the TGI (SNB-19 CNS) was > 100 µM and the TGI (TK-10 renal) was > 100 µM. The TGI (MOLT-4 leukemia) was > 100 µM, the TGI (CCRF-CEM leukemia) was > 100 µM and the TGI (OVCAR-8 ovarian) was > 100 µM. The TGI (HL-60(TB) leukemia) was > 100 µM, the TGI (UACC-257 melanoma) was > 100 µM and the TGI (MDA-MB-435) was > 100 µM. For the same compound, the TGI (LOX IMVI melanoma) was > 100 µM, the TGI (NCI/ADR-RES ovarian) was > 100 µM and the TGI (UO-31 renal) was > 100 µM. For the same compound, the TGI (HOP-92 NSCLC) was > 100 µM, the TGI (OVCAR-3 ovarian) was > 100 µM and the TGI (CAKI-1 renal) was > 100 µM. For the same compound, the TGI (M14 melanoma) was > 100 µM, the TGI (IGROV1 ovarian) was > 100 µM and the TGI (HT29 colon) was > 100 µM. The TGI (MCF7 breast) was > 100 µM, the TGI (RXF 393 renal) was 54.1 µM and the TGI (SNB-75 CNS) was 38.5 µM. The TGI (ACHN renal) was > 100 µM, the TGI (MDA-MB-231 breast) was > 100 µM and the TGI (SK-MEL-2 melanoma) was 63.3 µM. The TGI (A498 renal) was > 100 µM, the TGI (K-562 leukemia) was > 100 µM and the TGI (SF-295 CNS) was > 100 µM. The TGI (SK-MEL-28 melanoma) was > 100 µM, the TGI (RPMI-8226 leukemia) was > 100 µM and the TGI (HCT-15 colon) was > 100 µM. The TGI (OVCAR-4 ovarian) was > 100 µM, the TGI (HOP-62 NSCLC) was > 100 µM and the TGI (UACC-62 melanoma) was > 100 µM. For the same compound, the TGI (OVCAR-5 ovarian) was > 100 µM, the TGI (MALME-3M melanoma) was > 100 µM and the TGI (NCI-H460 lung) was > 100 µM. The TGI (HCT-116 colon) was > 100 µM.
